Common to all, as to format: in vivo
Test [1] has as its system weeds and/or crops. Briefly: Post-emergence biological efficacy (Table 4). Conditions: 312 h, 1000 g/ha, evaluated after 13 days. As to the method: (§1) Seeds of weeds and/or crops were sown in standard soil in pots. After cultivation for 14 days under controlled conditions in a glasshouse (at 24/19° C., day/night; 16 hours light), the plants were sprayed with an aqueous spray solution derived from the formulation of the technical active ingredient in a small amount of acetone and a special solvent and emulsifier mixture referred to as F50 (11.12% Emulsogen EL360 TM+44.44% N-methylpyrrolidone+44.44% Dowanol DPM glycol ether), to create a 50 g/l solution which was then diluted using 0.2% Genapol X080 as diluent to give the desired final dose of test compound.
(§2) The test plants were then grown under controlled conditions in the glasshouse (at 24/18° C., day/night; 15 hours light; 50% humidity) and watered twice daily. After 13 days the test was evaluated (100=total damage to plant; 0=no damage to plant).

For test [2], the system named is IPOHE. Briefly: Pre-emergence biological efficacy (Table 3). The note with it: Ipomoea hederacea, 312 h, 1000 g/ha, after 13 days, read-out: evaluation (100=total damage to plant; 0=no damage to plant). On the procedure:
as §1, with “one day” for “14 days”, “AMA” for “F50”
as §2

Test [3] has as its system AMARE. Briefly: Pre-emergence biological efficacy (Table 3). The note with it: Amaranthus retroflexus, 312 h, 1000 g/ha, after 13 days, read-out: evaluation (100=total damage to plant; 0=no damage to plant). On the procedure:
as §1, with “one day” for “14 days”, “AMA” for “F50”
as §2

The test system of test [4] is ZEAMX. Description: Pre-emergence biological efficacy (Table 3). The note with it: 312 h, 1000 g/ha, after 13 days, read-out: evaluation (100=total damage to plant; 0=no damage to plant). On the procedure: as §1, with “one day” for “14 days”, “AMA” for “F50”
as §2

The test system of test [5] is ECHCG. Description: Pre-emergence biological efficacy (Table 3). Conditions: Echinochloa crus-galli, 312 h, 1000 g/ha, after 13 days, read-out: evaluation (100=total damage to plant; 0=no damage to plant). As to the method: as §1, with “one day” for “14 days”, “AMA” for “F50”
as §2

The subject of test [6] is STEME. Description: Pre-emergence biological efficacy (Table 3). Conditions: 312 h, after 13 days, read-out: evaluation (100=total damage to plant; 0=no damage to plant). As to the method:
as §1, with “one day” for “14 days”, “AMA” for “F50”
as §2

Test [7] concerns ABUTH. Description: Pre-emergence biological efficacy (Table 3). The note with it: Abutilon theophrasti, 312 h, after 13 days, read-out: evaluation (100=total damage to plant; 0=no damage to plant). On the procedure:
as §1, with “one day” for “14 days”, “AMA” for “F50”
as §2

Where [8] appears, read: STEME, read-out: damage to plant STEME (100=total damage; 0=no damage).
The mark [9] stands for this setting: ZEAMX, read-out: damage to plant ZEAMX (100=total damage; 0=no damage).
Setting [10] is: Amaranthus retroflexus, AMARE, read-out: damage to plant AMARE (100=total damage; 0=no damage).
The mark [11] stands for this setting: Echinochloa crus-galli, ECHCG, read-out: damage to plant ECHCG (100=total damage; 0=no damage).
The mark [12] stands for this setting: Ipomoea hederacea, IPOHE, read-out: damage to plant IPOHE (100=total damage; 0=no damage).
Where [13] appears, read: Abutilon theophrasti, ABUTH, read-out: damage to plant ABUTH (100=total damage; 0=no damage).

Structures are written as SMILES. Like-named read-outs stand apart in the source and are kept apart here.

On to `Cc1ccc2onc(C)c2c1C(F)(F)C(=O)O` [Compound 1-396, 2-(3,5-dimethylbenzo[d]isoxazol-4-yl)-2,2-difluoroacetic acid], for which the pest or weed control at 1000 g/ha came to 0% in test [1] (setting [8]); 10% in test [1] (setting [9]); 10% in test [1] (setting [10]); 0% in test [1] (setting [11]); 60% in test [1] (setting [12]); 0% in test [2]. Further, the pest or weed control at 1000 g/ha in test [3], in test [5], in test [6] and in test [7] was 0% each time. Besides, the plant injury at 1000 g/ha in test [4] worked out at 30%.

On to `COc1cccc(C(F)(F)C(=O)O)c1Cl` [Compound 1-209, 2-(2-Chloro-3-methoxyphenyl)-2,2-difluoroacetic acid], for which the pest or weed control at 1000 g/ha in test [1] (setting [8]) was 90%; in test [1] (setting [9]), 10%; in test [1] (setting [10]), 80%; in test [1] (setting [11]), 10%; in test [1] (setting [12]), 80%; in test [2], 80%. The pest or weed control at 1000 g/ha amounted to 70% in test [3], 0% in test [5], 60% in test [6] and 60% in test [7]. Further, the plant injury at 1000 g/ha in test [4] was found to be 0%.

Consider `O=C(O)C(F)(F)c1cccc([N+](=O)[O-])c1Cl` [Compound 7-237, Ammonium 2-(2-chloro-3-nitro-phenyl)-2,2-difluoro-acetate], for which the pest or weed control at 1000 g/ha in test [1] (setting [8]) came out at 0%; in test [1] (setting [9]), 0%; in test [1] (setting [13]), 0%; in test [1] (setting [10]), 50%; in test [1] (setting [11]), 10%; in test [1] (setting [12]), 60%. In addition, the pest or weed control at 1000 g/ha amounted to 50% in test [2]; 0% in test [3]; 0% in test [5]; 0% in test [6]; 10% in test [7]. Also, in test [4], the plant injury at 1000 g/ha turned out to be 0%.

Regarding `COc1c(Cl)cccc1C(F)(F)C(=O)O` [Compound 1-317, 2-(3-chloro-2-methoxy-phenyl)-2,2-difluoro-acetic acid], the pest or weed control at 1000 g/ha was found to be 100% in test [1] (setting [8]); 60% in test [1] (setting [9]); 100% in test [1] (setting [10]); 60% in test [1] (setting [11]); 90% in test [1] (setting [12]); 90% in test [2]. Further, the pest or weed control at 1000 g/ha in test [3] was found to be 90%; in test [5], 90%; in test [6] it was 100%; in test [7] it was 100%. Further, the plant injury at 1000 g/ha in test [4] amounted to 70%.

Take `O=C(O)C(F)(F)c1c(Cl)ccc2c1OC(F)(F)O2` [Compound 1-389, 2-(5-Chloro-2,2-difluorobenzo[d][1,3]dioxol-4-yl)-2,2-difluoroaceticacid]: the pest or weed control at 1000 g/ha in test [1] (setting [8]) came to 50%; in test [1] (setting [9]), 0%; in test [1] (setting [10]), 80%; in test [1] (setting [11]), 10%; in test [1] (setting [12]), 70%; in test [2], 60%. The pest or weed control at 1000 g/ha in test [3] is 60%; in test [5], 10%; in test [6], 60%; in test [7], 50%. Besides, the plant injury at 1000 g/ha in test [4] was determined as 10%.

For the molecule `O=C(O)C(F)(F)c1cccc2c1OC(F)(F)O2` [Compound 1-385, 2-(2,2-Difluoro-1,3-benzodioxol-4-yl)-2,2-difluoro-acetic acid], the pest or weed control at 1000 g/ha stood at 100% in test [1] (setting [8]); 40% in test [1] (setting [9]); 90% in test [1] (setting [13]); 90% in test [1] (setting [10]); 50% in test [1] (setting [11]); 70% in test [1] (setting [12]). In addition, the pest or weed control at 1000 g/ha in test [2] was 70%; in test [3], 60%; in test [5] it was 50%; in test [6], 50%; in test [7] it was 90%. The plant injury at 1000 g/ha in test [4] was 50%.

In the case of `Nc1ccc(Cl)c(C(F)(F)C(=O)O)c1` [Compound 1-63, 2-(5-Amino-2-chloro-phenyl)-2,2-difluoro-acetic acid], the pest or weed control at 1000 g/ha amounted to 0% in test [1] (setting [8]); 0% in test [1] (setting [9]); 10% in test [1] (setting [13]); 20% in test [1] (setting [10]); 10% in test [1] (setting [11]); 20% in test [1] (setting [12]). In addition, the pest or weed control at 1000 g/ha in test [2], in test [3], in test [5], in test [6] and in test [7] was 0% in each case. In test [4], the plant injury at 1000 g/ha was 0%.

With `CSc1cccc(C(F)(F)C(=O)O)c1Cl` [Compound 1-220, 2-(2-Chloro-3-methylsulfanyl-phenyl)-2,2-difluoro-acetic acid], the pest or weed control at 1000 g/ha in test [1] (setting [8]) is 70%; in test [1] (setting [9]) it was 10%; in test [1] (setting [10]), 70%; in test [1] (setting [11]) it was 0%; in test [1] (setting [12]) it was 70%; in test [2], 70%. The pest or weed control at 1000 g/ha was 50% in test [3], 0% in test [5], 50% in test [6] and 80% in test [7]. Further, the plant injury at 1000 g/ha in test [4] is 10%.

With `Nc1ccc(Cl)c(C(F)(F)C(=O)O)c1Cl` [Compound 1-236, 2-(3-Amino-2,6-dichloro-phenyl)-2,2-difluoro-acetic acid], the pest or weed control at 1000 g/ha in test [1] (setting [8]) came out at 10%; in test [1] (setting [9]) it was 10%; in test [1] (setting [13]), 0%; in test [1] (setting [10]) it was 30%; in test [1] (setting [11]) it was 0%; in test [1] (setting [12]), 30%. Further, the pest or weed control at 1000 g/ha in test [2] is 0%; in test [3], 20%; in test [5], 0%; in test [6], 0%; in test [7], 0%.

As for `CCOC(=O)C(F)(F)c1c(Cl)cccc1[N+](=O)[O-]` [Compound 3-67, Ethyl 2-(2-chloro-6-nitrophenyl)-2,2-difluoroacetate], the pest or weed control at 1000 g/ha in test [1] (setting [8]) was found to be 0%; in test [1] (setting [9]) it was 20%; in test [1] (setting [13]), 10%; in test [1] (setting [10]) it was 50%; in test [1] (setting [12]) it was 50%; in test [2] it was 20%. For the same molecule, the pest or weed control at 1000 g/ha was found to be 10% in test [3], 10% in test [6] and 0% in test [7]. Moreover, in test [4], the plant injury at 1000 g/ha came out at 0%.
